In PMC9870890 (Nature Communications, 2023):
Residue numbers refer to the chain shown, from its start. Where “and” joins values, the source holds several entries; their conditions need not be identical. Equal values may be shown once. Read-outs that look alike come from different tables or passages of the source.

Legend:
M2RFL△9M_K383M = biological target: T1, M2RFL△9M_K383M (Homo sapiens, UniProt P08172, K383M/M139L/M142L/M143L/M1T/M248L/M296L/M368L/M456T/M45L); experiment: [3H]-NMS competition binding (ACh competition, GoA titration), engineered construct; set-up: unit not given here
T1 construct: we used the full-length M2R (M2RFL) with mutations at the three native methionines in ICL3; FLAG; His; made in house; host or cells: Sf9 membranes
T1 sequence (P08172 1-466 M1T/M45L/M139L/M142L/M143L/M248L/M296L/M368L/K383M/M456T): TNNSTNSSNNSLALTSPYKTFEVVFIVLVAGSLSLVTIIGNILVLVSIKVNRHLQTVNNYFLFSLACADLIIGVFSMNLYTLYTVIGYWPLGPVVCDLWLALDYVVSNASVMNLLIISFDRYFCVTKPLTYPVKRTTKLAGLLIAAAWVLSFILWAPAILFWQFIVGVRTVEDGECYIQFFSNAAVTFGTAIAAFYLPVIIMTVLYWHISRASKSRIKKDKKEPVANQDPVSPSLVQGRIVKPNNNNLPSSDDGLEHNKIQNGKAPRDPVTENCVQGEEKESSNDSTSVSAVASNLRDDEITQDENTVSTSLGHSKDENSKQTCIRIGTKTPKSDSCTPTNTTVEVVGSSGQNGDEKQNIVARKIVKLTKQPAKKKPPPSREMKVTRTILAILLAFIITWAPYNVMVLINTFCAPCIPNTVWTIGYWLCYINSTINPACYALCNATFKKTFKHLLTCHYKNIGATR
Procedure: Purified M2R receptor was reconstituted into high-density lipoprotein (HDL) particles constituting apolipoprotein A1(APOA1) and mixture of POPG: POPC lipids with 3:2 (mol:mol)ratio as previously described. […] Membranes or HDL particles were separated from excess [^3H]-NMS by Whatman GF/B filters using a Brandel 48-well harvester. The bound radioligand were read on a liquid scintillation counter (MicroBeta Jet, PerkinElmer). Data were analyzed by GraphPad Prism 9.2.0. […]
Data are given as mean
± SEM from 3 independent experiments.
M2RFL△9M_K383M and M2RFL_WT.
SEM from 3 independent experiments. […]

M2R = biological target: T2, M2R (Homo sapiens, UniProt P08172); experiment: cell-based; details: for Emax: HEK-293T
T2 sequence (P08172 1-466): T1 sequence (P08172 1-466 M1T/M45L/M139L/M142L/M143L/M248L/M296L/M368L/K383M/M456T) with T1M, L45M, L139M, L142M, L143M, L248M, L296M, L368M, M383K, T456M

Q: With `CC(=O)OCC[N+](C)(C)C` [ACh, acetylcholine] as the compound, how does the “ACh competition curve data, Supplementary Fig. 4c” value (“ACh competition curve data” below) (M2RFL△9M_K383M; log[M] (ACh) -3) read?
A: 3.636 and 3.347 and 4.163

Q: And the “ACh competition curve data” value (M2RFL△9M_K383M; log[M] (ACh) -4)?
A: 19.7375 and 21.0617 and 22.4385

Q: And the “ACh competition curve data” value (M2RFL△9M_K383M; log[M] (ACh) -5)?
A: 66.4796 and 63.8048 and 73.8724

Q: What about the “ACh competition curve data” value (M2RFL△9M_K383M; log[M] (ACh) -6) of the same compound?
A: 76.3279 and 99.6814 and 101.207

Q: And the “ACh competition curve data” value (M2RFL△9M_K383M; log[M] (ACh) -7)?
A: 102.154 and 99.3043 and 98.5413

Q: And the “ACh competition curve data” value (M2RFL△9M_K383M; log[M] (ACh) -8)?
A: 82.4578 and 100.655 and 103.084

Q: For `C[N+](C)(C)CC#CCOC1=NOCC1` [Ixo, iperoxo], which EC50 (M2R) is on record?
A: 0.31 ± 0.043 nM

Q: And the Emax (M2R; read-out: Emax in % of acetylcholin, IP accumulation by iperoxo, agonist (absence of LY2119620))?
A: 115%

Q: What about the Emax (M2R; read-out: Emax in % of acetylcholin, IP accumulation by iperoxo, agonist + 0.1 µM LY) of the same compound?
A: 111%

Q: And the Emax (M2R; read-out: Emax in % of acetylcholin, IP accumulation by iperoxo, agonist + 1 µM LY)?
A: 105%

Q: And the Emax (M2R; read-out: Emax in % of acetylcholin, IP accumulation by iperoxo, agonist + 3 µM LY)?
A: 104%

Q: And the Emax (M2R; read-out: Emax in % of acetylcholin, IP accumulation by iperoxo, agonist + 10 µM LY)?
A: 104%

Q: And the Emax (M2R; read-out: Emax in % of acetylcholin, IP accumulation by iperoxo, agonist + 100 µM LY)?
A: 102%

Q: What about the Emax (M2R; read-out: IP accumulation as % max effect of acetylcholin, iperoxo log [M] 3-8, 1µM LY2119620) of the same compound?
A: 103%

Q: And the Emax (M2R; read-out: IP accumulation as % max effect of acetylcholin, iperoxo log [M] 3-8, 3µM LY2119620)?
A: 102%

Q: What about the Emax (M2R; read-out: IP accumulation as % max effect of acetylcholin, iperoxo log [M] 3-8, 10µM LY2119620) of the same compound?
A: 99.3%

Q: And the Emax (M2R; read-out: IP accumulation as % max effect of acetylcholin, iperoxo log [M] 3-8, 100µM LY2119620)?
A: 98.3%

Q: What about the Emax (M2R; read-out: IP accumulation as % max effect of acetylcholin, iperoxo log [M] 3-8, no LY2119620) of the same compound?
A: 111%

Q: And the Emax (M2R; read-out: IP accumulation as % max effect of acetylcholin, iperoxo log [M] 3-9, 0.1µM LY2119620)?
A: 122%

Q: And the Emax (M2R; read-out: IP accumulation as % max effect of acetylcholin, iperoxo log [M] 3-9, 1µM LY2119620)?
A: 104%

Q: And the Emax (M2R; read-out: IP accumulation as % max effect of acetylcholin, iperoxo log [M] 3-9, 3µM LY2119620)?
A: 106%

Q: What about the Emax (M2R; read-out: IP accumulation as % max effect of acetylcholin, iperoxo log [M] 3-9, 10µM LY2119620) of the same compound?
A: 98.3%

Q: What about the Emax (M2R; read-out: IP accumulation as % max effect of acetylcholin, iperoxo log [M] 3-9, 30µM LY2119620) of the same compound?
A: 87.5%

Q: And the Emax (M2R; read-out: IP accumulation as % max effect of acetylcholin, iperoxo log [M] 3-9, 100µM LY2119620)?
A: 106%

Q: And the Emax (M2R; read-out: IP accumulation as % max effect of acetylcholin, iperoxo log [M] 3-9, no LY2119620)?
A: 113%

Q: What about the Emax (M2R; read-out: IP accumulation as % max effect of acetylcholin, iperoxo log [M] 3-10, 0.1µM LY2119620) of the same compound?
A: 85.3%

Q: What about the Emax (M2R; read-out: IP accumulation as % max effect of acetylcholin, iperoxo log [M] 3-10, 1µM LY2119620) of the same compound?
A: 100%

Q: What about the Emax (M2R; read-out: IP accumulation as % max effect of acetylcholin, iperoxo log [M] 3-10, 3µM LY2119620) of the same compound?
A: 104%

Q: What about the Emax (M2R; read-out: IP accumulation as % max effect of acetylcholin, iperoxo log [M] 3-10, 10µM LY2119620) of the same compound?
A: 106%

Q: What about the Emax (M2R; read-out: IP accumulation as % max effect of acetylcholin, iperoxo log [M] 3-10, 100µM LY2119620) of the same compound?
A: 104%

Q: What about the Emax (M2R; read-out: IP accumulation as % max effect of acetylcholin, iperoxo log [M] 3-11, 0.1µM LY2119620) of the same compound?
A: 26.4%

Q: And the Emax (M2R; read-out: IP accumulation as % max effect of acetylcholin, iperoxo log [M] 3-11, 10µM LY2119620)?
A: 94.8%

Q: What about the Emax (M2R; read-out: IP accumulation as % max effect of acetylcholin, iperoxo log [M] 3-12, 0.1µM LY2119620) of the same compound?
A: 12.3%

Q: What about the Emax (M2R; read-out: IP accumulation as % max effect of acetylcholin, iperoxo log [M] 3-12, 1µM LY2119620) of the same compound?
A: 35.6%

Q: What about the Emax (M2R; read-out: IP accumulation as % max effect of acetylcholin, iperoxo log [M] 3-12, 100µM LY2119620) of the same compound?
A: 80.3%

Q: And the Emax (M2R; read-out: IP accumulation as % max effect of acetylcholin, iperoxo log [M] -6, 0.1µM LY2119620)?
A: 108%

Q: And the Emax (M2R; read-out: IP accumulation as % max effect of acetylcholin, iperoxo log [M] -6, 1µM LY2119620)?
A: 101%

Q: And the Emax (M2R; read-out: IP accumulation as % max effect of acetylcholin, iperoxo log [M] -6, 3µM LY2119620)?
A: 101%

Q: And the Emax (M2R; read-out: IP accumulation as % max effect of acetylcholin, iperoxo log [M] -6, 10µM LY2119620)?
A: 104%

Q: What about the Emax (M2R; read-out: IP accumulation as % max effect of acetylcholin, iperoxo log [M] -6, 30µM LY2119620) of the same compound?
A: 97%

Q: What about the Emax (M2R; read-out: IP accumulation as % max effect of acetylcholin, iperoxo log [M] -6, 100µM LY2119620) of the same compound?
A: 104%

Q: And the Emax (M2R; read-out: IP accumulation as % max effect of acetylcholin, iperoxo log [M] -6, no LY2119620)?
A: 102%

Q: What about the Emax (M2R; read-out: IP accumulation as % max effect of acetylcholin, iperoxo log [M] -7, 0.1µM LY2119620) of the same compound?
A: 104%

Q: And the Emax (M2R; read-out: IP accumulation as % max effect of acetylcholin, iperoxo log [M] -7, 1µM LY2119620)?
A: 104%

Q: What about the Emax (M2R; read-out: IP accumulation as % max effect of acetylcholin, iperoxo log [M] -7, 3µM LY2119620) of the same compound?
A: 98.3%

Q: What about the Emax (M2R; read-out: IP accumulation as % max effect of acetylcholin, iperoxo log [M] -7, 10µM LY2119620) of the same compound?
A: 101%

Q: What about the Emax (M2R; read-out: IP accumulation as % max effect of acetylcholin, iperoxo log [M] -7, 100µM LY2119620) of the same compound?
A: 102%

Q: And the Emax (M2R; read-out: IP accumulation as % max effect of acetylcholin, iperoxo log [M] -7, no LY2119620)?
A: 107%

Q: What about the Emax (M2R; read-out: IP accumulation as % max effect of acetylcholin, iperoxo log [M] -8, 0.1µM LY2119620) of the same compound?
A: 113%

Q: What about the Emax (M2R; read-out: IP accumulation as % max effect of acetylcholin, iperoxo log [M] -8, 3µM LY2119620) of the same compound?
A: 106%

Q: And the Emax (M2R; read-out: IP accumulation as % max effect of acetylcholin, iperoxo log [M] -8, 10µM LY2119620)?
A: 102%

Q: And the Emax (M2R; read-out: IP accumulation as % max effect of acetylcholin, iperoxo log [M] -8, no LY2119620)?
A: 112%

Q: And the Emax (M2R; read-out: IP accumulation as % max effect of acetylcholin, iperoxo log [M] -9, 1µM LY2119620)?
A: 108%

Q: What about the Emax (M2R; read-out: IP accumulation as % max effect of acetylcholin, iperoxo log [M] -9, 10µM LY2119620) of the same compound?
A: 106%

Q: And the Emax (M2R; read-out: IP accumulation as % max effect of acetylcholin, iperoxo log [M] -9, 100µM LY2119620)?
A: 108%

Q: What about the Emax (M2R; read-out: IP accumulation as % max effect of acetylcholin, iperoxo log [M] -10, 3µM LY2119620) of the same compound?
A: 100%

Q: And the Emax (M2R; read-out: IP accumulation as % max effect of acetylcholin, iperoxo log [M] -10, 10µM LY2119620)?
A: 101%

Q: What about the Emax (M2R; read-out: IP accumulation as % max effect of acetylcholin, iperoxo log [M] -12, 100µM LY2119620) of the same compound?
A: 94.6%

Q: What about the Emax (M2R; read-out: IP accumulation as % max effect of acetylcholin, iperoxo log [M] -14, 0.1µM LY2119620) of the same compound?
A: 18.7%

Q: What about the Emax (M2R; read-out: IP accumulation as % max effect of acetylcholin, iperoxo log [M] -14, 30µM LY2119620) of the same compound?
A: 79.3%

Q: What about the Emax (M2R; read-out: IP accumulation as % max effect of acetylcholin, iperoxo log [M] -14, 100µM LY2119620) of the same compound?
A: 78.3%
